The results in this text go back to PubChem BioAssay AID330 (DTP/NCI, 2004).

“And” between values parts separate entries of the source, which are not always exact repeats. Equal entries are not always repeated. Inconclusive results and toxic doses are left out.

This experiment has as its system P388 leukemia ip, CD2F1 mice, survival T/C. The experiment in a line: NCI In Vivo Anticancer Drug Screen. Data for tumor model P388 Leukemia (intraperitoneal) in CD2F1 (CDF1) mice. The note with it: endpoint: median survival time, higher = longer survival. Put shortly: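 Mice carrying the transplanted tumor received test compound or vehicle. Survival was recorded in each group, and the value is the treated-group measurement divided by that of the vehicle-treated control group.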

Where [1] appears, read: dose: 15.0 mg/kg/injection, schedule: Q01DX005 (ip), vehicle: saline with Tween-80.
The mark [2] stands for this setting: dose: 240.0 mg/kg/injection, schedule: Q01DX005 (ip), vehicle: saline with Tween-80.
Where [3] appears, read: dose: 12.5 mg/kg/injection, schedule: Q01DX009 (ip), vehicle: saline with Tween-80.
The mark [4] stands for this setting: dose: 50.0 mg/kg/injection, schedule: Q01DX009 (ip), vehicle: saline with Tween-80.
[5] abbreviates: dose: 100.0 mg/kg/injection, schedule: Q01DX009 (ip), vehicle: saline with Tween-80.
Where [6] appears, read: dose: 60.0 mg/kg/injection, schedule: Q01DX005 (ip), vehicle: saline with Tween-80.
Setting [7] is: dose: 120.0 mg/kg/injection, schedule: Q01DX005 (ip), vehicle: saline with Tween-80.
[8] abbreviates: dose: 50.0 mg/kg/injection, schedule: Q01DX005 (ip), vehicle: saline with Tween-80.
[9] abbreviates: dose: 100.0 mg/kg/injection, schedule: Q01DX005 (ip), vehicle: saline with Tween-80.
Where [10] appears, read: dose: 200.0 mg/kg/injection, schedule: Q01DX005 (ip), vehicle: saline with Tween-80.
Setting [11] is: dose: 5.0 mg/kg/injection, schedule: Q01DX009 (ip), vehicle: Klucel (hydroxypropylcellulose) (HPC).
Where [12] appears, read: dose: 20.0 mg/kg/injection, schedule: Q01DX009 (ip), vehicle: Klucel (hydroxypropylcellulose) (HPC).
[13] abbreviates: dose: 30.0 mg/kg/injection, schedule: Q01DX005 (ip), vehicle: saline with Tween-80.
Setting [14] is: dose: 100.0 mg/kg/injection, schedule: Q04DX002 (ip), vehicle: saline.
[15] abbreviates: dose: 200.0 mg/kg/injection, schedule: Q04DX002 (ip), vehicle: saline.

Take `NCCN1CCc2ccccc2C1`: the T/C reads like this: (dose: 6.25 mg/kg/injection, schedule: Q04DX003 (ip), vehicle: saline) 95 % of control; (dose: 12.5 mg/kg/injection, schedule: Q04DX003 (ip), vehicle: saline) 100 % of control; (dose: 25.0 mg/kg/injection, schedule: Q04DX003 (ip), vehicle: saline) 100 % of control.

Regarding `C/C(NCCc1ccccc1)=C1\CCOC1=O`, the T/C reads like this: (dose: 50.0 mg/kg/injection, schedule: Q01DX001 (ip), vehicle: Klucel (hydroxypropylcellulose) (HPC)) 101 % of control; (dose: 100.0 mg/kg/injection, schedule: Q01DX001 (ip), vehicle: Klucel (hydroxypropylcellulose) (HPC)) 96 % of control; (dose: 200.0 mg/kg/injection, schedule: Q01DX001 (ip), vehicle: Klucel (hydroxypropylcellulose) (HPC)) 104 % of control.

For `O=C(NC(=S)Nc1ccc(CCO)cc1)c1cccc(Br)c1`, the T/C is 91 % of control (dose: 3.75 mg/kg/injection, schedule: Q01DX005 (ip), vehicle: saline with Tween-80); 90 % of control (dose: 7.5 mg/kg/injection, schedule: Q01DX005 (ip), vehicle: saline with Tween-80); 87 % of control under setting [1]; 92 % of control under setting [2].

Consider `O=C1Nc2ccc([N+](=O)[O-])cc2/C1=C/C(=O)c1ccccc1`, for which the T/C by setting is: (dose: 3.13 mg/kg/injection, schedule: Q01DX009 (ip), vehicle: saline with Tween-80) 101 % of control; (dose: 6.25 mg/kg/injection, schedule: Q01DX009 (ip), vehicle: saline with Tween-80) 98 % of control; under setting [3], 96 % of control; under setting [4], 100 % of control; under setting [5], 108 % of control.

Turning to `O=C(/C=C/c1c(-c2ccccc2)[nH]c2ccccc12)c1cccc([N+](=O)[O-])c1`, the T/C by setting is: under setting [6], 98 % of control; under setting [7], 90 % of control; under setting [2], 90 % of control.

Regarding `Cc1c(N=Nc2cccc(F)c2)c(-c2ccccc2)nn1C(=S)S`, the T/C under setting [8] is 117 % of control, the T/C under setting [9] is 111 % of control and the T/C under setting [10] is 104 % of control.

As to `CC[PH+](CC)CC[S-].CC[PH+](CC)CC[S-].[Au+].[Au+]`, the T/C is, setting by setting: (dose: 2.5 mg/kg/injection, schedule: Q01DX009 (ip), vehicle: Klucel (hydroxypropylcellulose) (HPC)) 109 % of control; under setting [11], 114 % of control and 115 % of control; under setting [12], 153 % of control; (dose: 40.0 mg/kg/injection, schedule: Q01DX009 (ip), vehicle: Klucel (hydroxypropylcellulose) (HPC)) 87 % of control.

For the compound `COc1cc2c(cc1OC)C1CC(=O)C(Cc3ccccc3)CN1CC2` (stereo unspecified), the T/C was 101 % of control (dose: 50.0 mg/kg/injection, schedule: Q01DX009 (ip), vehicle: Klucel (hydroxypropylcellulose) (HPC)); 87 % of control and 95 % of control (dose: 100.0 mg/kg/injection, schedule: Q01DX009 (ip), vehicle: Klucel (hydroxypropylcellulose) (HPC)); 95 % of control and 104 % of control (dose: 200.0 mg/kg/injection, schedule: Q01DX009 (ip), vehicle: Klucel (hydroxypropylcellulose) (HPC)).

As to `O=C1C=C(Nc2ccccc2)CCC1`, the T/C is 100 % of control (dose: 100.0 mg/kg/injection, schedule: Q04DX003 (ip), vehicle: saline with Tween-80); 105 % of control (dose: 200.0 mg/kg/injection, schedule: Q04DX003 (ip), vehicle: saline with Tween-80); 105 % of control (dose: 400.0 mg/kg/injection, schedule: Q04DX003 (ip), vehicle: saline with Tween-80).

For `N/C(=N\C(O)C(Cl)(Cl)Cl)SCNC(=O)NCS/C(N)=N/C(O)C(Cl)(Cl)Cl` (stereo unspecified), the T/C by setting is: under setting [8], 105 % of control; under setting [9], 100 % of control; under setting [10], 95 % of control.

Consider `COc1cc(C=Nc2ccc(-n3ccnc3C)cc2)ccc1N(CCCl)CCCl`, for which the T/C by setting is: under setting [11], 170 % of control; (dose: 10.0 mg/kg/injection, schedule: Q01DX009 (ip), vehicle: Klucel (hydroxypropylcellulose) (HPC)) 181 % of control; under setting [12], 106 % of control.

`Cn1c(C=O)cc2c(Cl)nccc21`: the T/C (dose: 50.0 mg/kg/injection, schedule: Q01DX005 (ip), vehicle: Klucel (hydroxypropylcellulose) (HPC)) is 103 % of control; the T/C (dose: 100.0 mg/kg/injection, schedule: Q01DX005 (ip), vehicle: Klucel (hydroxypropylcellulose) (HPC)) was 103 % of control; the T/C (dose: 200.0 mg/kg/injection, schedule: Q01DX005 (ip), vehicle: Klucel (hydroxypropylcellulose) (HPC)) was 101 % of control.

As to `NCCS(=O)(=O)O`, the T/C (dose: 100.0 mg/kg/injection, schedule: Q01DX009 (ip), vehicle: water) is 90 % of control; the T/C (dose: 200.0 mg/kg/injection, schedule: Q01DX009 (ip), vehicle: water) is 86 % of control; the T/C (dose: 400.0 mg/kg/injection, schedule: Q01DX009 (ip), vehicle: water) is 86 % of control; the T/C (dose: 800.0 mg/kg/injection, schedule: Q01DX009 (ip), vehicle: water) is 90 % of control.

In the case of `c1ccc2sc(-c3ccncc3)nc2c1`, the T/C is 102 % of control under setting [4]; 99 % of control under setting [5]; 108 % of control (dose: 200.0 mg/kg/injection, schedule: Q01DX009 (ip), vehicle: saline with Tween-80).

`NNC(=O)CNc1ccc(F)c(Cl)c1`: the T/C is 99 % of control under setting [1]; 96 % of control under setting [13]; 94 % of control and 97 % of control under setting [6]; 104 % of control under setting [7].

As for `O=[N+]([O-])c1ccc2nc(CCl)[nH]c2c1`, the T/C by setting is: under setting [3], 103 % of control; (dose: 25.0 mg/kg/injection, schedule: Q01DX009 (ip), vehicle: saline with Tween-80) 116 % of control; under setting [4], 99 % of control and 111 % of control.

`Cc1cc(C)nc(NC(=O)Nc2cc(Cl)ccc2C)c1`: the T/C reads like this: (dose: 60.0 mg/kg/injection, schedule: Q01DX005 (ip), vehicle: Klucel (hydroxypropylcellulose) (HPC)) 88 % of control; (dose: 120.0 mg/kg/injection, schedule: Q01DX005 (ip), vehicle: Klucel (hydroxypropylcellulose) (HPC)) 86 % of control; (dose: 240.0 mg/kg/injection, schedule: Q01DX005 (ip), vehicle: Klucel (hydroxypropylcellulose) (HPC)) 89 % of control.

Consider `CSc1nnc(C2CCC(=O)N2Cc2ccccc2)o1` (stereo unspecified), for which the T/C (dose: 60.0 mg/kg/injection, schedule: Q01DX005 (ip), vehicle: saline) is 105 % of control; the T/C (dose: 120.0 mg/kg/injection, schedule: Q01DX005 (ip), vehicle: saline) is 102 % of control; the T/C (dose: 240.0 mg/kg/injection, schedule: Q01DX005 (ip), vehicle: saline) was 104 % of control.

Take `COn1nnc2ccc(N)cc21`: the T/C is 99 % of control under setting [14] and 102 % of control under setting [15].

Turning to `CN(C)CCCn1ncc(Sc2cc([N+](=O)[O-])ccc2N)c(Cl)c1=O`, the T/C was 95 % of control under setting [1]; 94 % of control under setting [13]; 99 % of control and 107 % of control and 94 % of control under setting [6]; 93 % of control under setting [7]; 89 % of control under setting [2].

Consider `CCOc1c(N=Nc2ccccc2)c(C)nn1C(N)=S`, for which the T/C (dose: 60.0 mg/kg/injection, schedule: Q01DX005 (ip), vehicle: Klucel + Tween-80) is 95 % of control; the T/C (dose: 120.0 mg/kg/injection, schedule: Q01DX005 (ip), vehicle: Klucel + Tween-80) was 102 % of control; the T/C (dose: 240.0 mg/kg/injection, schedule: Q01DX005 (ip), vehicle: Klucel + Tween-80) is 95 % of control.

`CC1=CC(O)C(O)C2(C)C1CC1OC(=O)CC3C(C)C(O)C(=O)C2C13CO` (stereo unspecified): the T/C was 97 % of control (dose: 12.5 mg/kg/injection, schedule: Q01DX005 (ip), vehicle: saline with Tween-80); 100 % of control (dose: 25.0 mg/kg/injection, schedule: Q01DX005 (ip), vehicle: saline with Tween-80); 102 % of control under setting [8].

Consider `CC1(C)CN(c2ccccc2)N(C(=O)C(=O)N2C(=O)C(C)(C)CN2c2ccccc2)C1=O`, for which the T/C is 104 % of control under setting [14]; 102 % of control under setting [15]; 100 % of control (dose: 400.0 mg/kg/injection, schedule: Q04DX002 (ip), vehicle: saline).
